Measurements as given in US9610369B2, “Compound suitable for detection of vesicular acetylcholine transporter” (HAMAMATSU PHOTONICS K.K., priority 2013, dated 2017).

Tests used:
[1] = biological target: T1, vesicular acetylcholine transporters (Macaca mulatta, UniProt A0A1D5QJ59); experiment: PET measurement of time-dependent change of [^11C]HAPT in brain ROIs; type: in vivo, Rhesus monkey (Macaca mulatta); conditions: brain of Rhesus monkey, FIG. 1; for binding to vesicular acetylcholine transporters: intravenous administration, dynamic PET 180 minutes
T1 construct: Rhesus monkey having a body weight of about 5 kg was immobilized to PET apparatus; from tissue; host or cells: brain of living Rhesus monkey (in vivo PET)
T1 sequence (A0A1D5QJ59 1-532): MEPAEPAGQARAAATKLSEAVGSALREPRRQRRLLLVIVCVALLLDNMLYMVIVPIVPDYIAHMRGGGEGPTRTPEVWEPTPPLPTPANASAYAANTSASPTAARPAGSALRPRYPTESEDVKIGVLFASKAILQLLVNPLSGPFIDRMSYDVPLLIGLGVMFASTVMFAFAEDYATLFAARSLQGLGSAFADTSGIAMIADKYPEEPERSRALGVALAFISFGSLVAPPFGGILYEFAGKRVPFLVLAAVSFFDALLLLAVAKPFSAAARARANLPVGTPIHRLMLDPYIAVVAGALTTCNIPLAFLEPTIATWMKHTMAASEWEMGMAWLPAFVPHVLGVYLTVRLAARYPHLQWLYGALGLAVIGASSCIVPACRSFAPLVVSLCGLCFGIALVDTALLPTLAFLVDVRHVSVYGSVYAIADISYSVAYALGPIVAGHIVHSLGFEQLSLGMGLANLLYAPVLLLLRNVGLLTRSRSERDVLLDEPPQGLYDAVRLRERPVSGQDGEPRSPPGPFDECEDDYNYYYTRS
Experimental: (§1) Rhesus monkey having a body weight of about 5 kg was immobilized to PET apparatus (trade name, SHR7700 manufactured by Hamamatsu Photonics KK) without anesthesia. After transmission was measured for absorption correction, [^11C]HAPT was intravenously administered and dynamic measurement was performed for 180 minutes.
In tomographic images obtained from a single individual by a nuclear magnetic resonance tomography apparatus (hereinafter, MRI), a region of interest (ROI) was determined and then, a time-dependent change of a labeled compound ([^11C]HAPT) in each ROI was obtained.

[2] = biological target: T1, vesicular acetylcholine transporters; experiment: Localization of [^11C]HAPT in individual sites of the brain (PET); type: in vivo; conditions: brain of Rhesus monkey, 13 sites checked, FIG. 3
Experimental: as §1
Localization of [^11C]HAPT in individual sites of the brain of Rhesus monkey was checked. The results of the cases of using (S,S)HAPT-A and (R,R)HAPT-A are shown in FIG. 3 (A); whereas the results of the cases of using (S,S)HAPT-B and (R,R)HAPT-B are shown in FIG. 3 (B).

[3] = biological target: T1, vesicular acetylcholine transporters; experiment: Inhibition experiment with vesicular transporter inhibitor vesamicol (PET); type: in vivo, Rhesus monkey; conditions: L-(−)-vesamicol 1 mg/kg intravenously 30 minutes before tracer, FIG. 4 and 5
Experimental: Inhibition experiments were performed by using a vesicular transporter inhibitor (vesamicol). Specific procedure employed is as follows.
The cephalic vein or saphenous vein was secured as the route for intravenous administration to test animals and the femoral artery or posterior tibial artery was secured as the route for arterial blood sampling.
Thirty minutes before administration of [^11C]HAPT, L-(−)-vesamicol was intravenously administered in a dose of 1 mg/kg.
The amount of radioactivity of [^11C]HAPT before administration was measured. A total amount of [^11C]HAPT was intravenously administered from an indwelling needle placed in a test animal over about 30 seconds. Simultaneously with initiation of administration, Emission measurement (121 minutes, 55 frames in total including: 10 seconds 6 frames, 30 seconds 6 frames, 1 minute 12 frames, […], 5 minutes 6 frames) was started for monitoring.

Structure (SMILES) | binding to vesicular acetylcholine transporters [1] | localization in individual sites of the brain [2] | binding to vesicular acetylcholine transporters with vesamicol compared to control [3] | time to reach an equilibrium state from initiation of measurement ([1]; PET)
Cc1cccc2c1C[C@@H](O)[C@H](N1CCN(c3ccccc3N)CC1)C2 [(R,R)[^11C]HAPT-B, (2R,3R)-3-(4-(2-aminophenyl)piperazin-1-yl)-8-[^11C]methyl-1,2,3,4-tetrahydronaphthalen-2-ol] | specifically binds to a vesicular acetylcholine transporter | localized most significantly in the putamen | – | –
[11CH3]c1cccc2c1C[C@@H](O)[C@H](N1CCN(c3ccccc3N)CC1)C2 [(R,R)[^11C]HAPT-B, (2R,3R)-3-(4-(2-aminophenyl)piperazin-1-yl)-8-[^11C]methyl-1,2,3,4-tetrahydronaphthalen-2-ol] | specifically bind to vesicular acetylcholine transporters | – | reduces | about 15 minutes
Cc1cccc2c1C[C@H](O)[C@@H](N1CCN(c3ccccc3N)CC1)C2 [(S,S)[^11C]HAPT-B] | does not bind to vesicular acetylcholine transporters | non-specific binding in any site | – | –
Cc1cccc2c1C[C@H](N1CCN(c3ccccc3N)CC1)[C@@H](O)C2 [(S,S)[^11C]HAPT-A] | specifically bind to vesicular acetylcholine transporters | localized most significantly in the putamen | – | –
Cc1cccc2c1C[C@@H](N1CCN(c3ccccc3N)CC1)[C@H](O)C2 [(R,R)[^11C]HAPT-A] | specifically bind to vesicular acetylcholine transporters | localized most significantly in the putamen | – | –
